Measurements from patent US9789114B2, “Compounds as HIF-1α inhibitors and manufacturing process thereof” (DONGGUK UNIVERSITY INDUSTRY-ACADEMIC COOPERATION FOUNDATION, priority 2011, dated 2017).
Like-named read-outs stand apart in the source and are kept apart here.

Legend:
GAPDH = GAPDH expression level (internal control) in western blot, HCT116 cells; type: cell-based, human; settings: HCT116, hypoxia 1% O2, 0-30 μM, 12 hours, FIG. 1
Method: (§1) First, HCT116 human colon cancer cells (ATCC #CCL-247) were plated at the concentration of 2×10^5 cells/ml. After 24 hours, the cells were incubated under hypoxia (1% O2, 94% N2, and 5% CO2, expressed as 1% O2 in FIG. 1) for 4 hours in order to induce HIF-la accumulation. Cells were treated with the compounds at various concentrations (0, 3, 10, 20, and 30 μM) for 12 hours under hypoxia. The cells were then harvested, and lysed in RIPA buffer to obtain nuclear extracts. Cells grown at 20% O2 (normoxia) were used as control groups to compare HIF-1α-mediated gene expression under each condition. 30 μg of the nuclear extracts per sample was separated by SDS-PAGE (sodium dodecyl sulfate-polyacrylamide gel electrophoresis), and was then transferred to PVDF (polyvinylidene fluoride membrane) membranes. After membranes were probed with HIF-1α antibodies (R&D System), HIF-1α proteins were detected with HRP-conjugated secondary antibodies (Amersham-Pharmacia). GAPDH (Glyceraldehyde 3-phosphate dehydrogenase) was used as an internal control for loading in western blot analysis.

[1] = test system: HIF-1α-mediated HRE transcriptional activity; experiment: Assay for inhibition of HIF-1α-mediated transcriptional activity (HRE reporter assay); type: cell-based, human; settings: Homo sapiens, HCT-116, HCT116 cells, 12 hours under hypoxia (1% O2), read-out: Inhibitory activity against HIF-1α (10 μM)
Outline: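 HCT116 human colon cancer cells co-transfected with pGL3 luciferase reporter carrying six HRE copies from human VEGF plus Renilla control, then treated with 0–20 μM compound for 12 h under hypoxia (1% O2). Inhibition taken from dual-luciferase reporter activity in lysates.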

[2] = test system: Chick embryo chorioallantoic membrane; experiment: CAM (chick embryo chorioallantoic membrane) assay; type: in vivo; settings: 10-20 μg on coverslip, 2 days, FIG. 2
Method: CAM (Chick embryo chorioallantoic membrane) assay was conducted as an in vivo model to determine whether the compounds according to the present invention, I-3, I-6, I-19, and I-22, had anti-angiogenic effects or not. DMSO-treated groups were used as negative controls.
According to the present invention, CAM assay was performed as follows.
Fertilized eggs were incubated periodically rolling at 37° C. with 50% humidity for 2-3 days. When eggs were erected, approximately 3 ml of albumin was extracted from the sharp edge of the eggs using a syringe. The hole of the eggs was sealed with a tape to prevent from dryness and contamination, and the hole of the eggs was put down and incubated for 2 to 3 days. After punching a hole with 1.5 cm diameter in the round part of eggs, opaque membrane was removed carefully. The compounds (10-20 μg) according to the present invention were placed and spread on thermanox coverslip equally to dry, and then the hole in the round part of eggs put on the upper part of the fertilized eggs that vessels grew. The eggs were examined under the dissecting microscope and the results were given in FIG. 2, after covering the hole with a coverglass to protect it from contamination for 2 days.

[3] = Body weight change and side effects during 14 days of oral treatment in nude mice; type: in vivo, BALB/c nu/nu mice
Method: (§2) In vivo anti-cancer activity of the compounds according to the present invention, I-3, I-6, I-8, I-16, I-19, I-22, I-23, and I-24, was measured in mice to evaluate in vivo efficacy by oral administration. Specifically, the nude mice were divided into test groups and control groups, each consisting of 4 mice. In vivo efficacy was evaluated by measuring body weight, tumor volume, and tumor weight.
(§3) Female nude mice 6 weeks old (BALB/c nu/nu, Charles River) were bred in germ-free breeding rooms maintained at constant temperature and humidity. After the nude mice were anesthetized, HCT116 colon cancer cells were implanted at a count of […] cells/mouse into the rectum in BALB/c nu/nu mice and then the incisions were closed with surgical clips. The size of tumor was measured by a caliper. When the size of transplanted tumor reached to 50˜60 mm^3, the above compounds according to the present invention were administered. In more detail, after the above compounds in test groups were dissolved at concentration of 20 mg/kg in a solvent containing 80% of physiological saline, 10% of DMAC (dimethylacetamide), and 10% Tween 80 (hereinafter referred to as ‘Solvent A’), […] of dissolved compounds were orally administered once a day. Mice in control groups were treated with […] of Solvent A alone once daily.
(§4) Tumor volume and body weight were measured to identify in vivo anti-cancer activity of the compounds according to the present invention by repetitive oral administration. Tumor volume and tumor growth inhibition (TGI) in Table 2 were calculated according to the below Mathematic FIG. 1 and FIG. 2, respectively. Tumor growth inhibition was converted to a percentage in Table 2.
Moreover, severe side effects and statistically significant changes of body weight in all mice treated compounds were not shown for 14 days, comparing to control groups treated with vehicle. (Table 3)

[4] = test system: HCT116 colon cancer cells; experiment: In vivo anti-cancer activity by oral administration, HCT116 tumor in nude mice; design: species or system BALB/c nu/nu mice; settings: for inhibition in vivo at 20 mg/kg: Mus musculus; for inhibitory effects on tumor growth (TGI results): 20 mg/kg oral once a day, 14 days
Method: <Example 4> In Vivo Anti-Cancer Activity of Compounds by Oral Administration
as §2, §3, §4

HIF-1α = biological target: T1, HIF-1α (Homo sapiens, UniProt Q16665); experiment: Inhibition of hypoxia-induced HIF-1α accumulation, western blot in HCT116 cells; type: cell-based; settings: HCT116, hypoxia 1% O2, 0-30 μM, 12 hours, FIG. 1
T1 construct: endogenous in cells; host or cells: HCT116 human colon cancer cells (ATCC #CCL-247)
Method: <Experiment 2> In Vitro Studies for Inhibition of Hypoxia-Induced HIF-1α Accumulation
Inhibition of HIF-1α accumulation by the compounds according to the present invention was determined in HCT116 human colon cancer cells. In particular, western blot analysis was used to identify the compounds, I-3, I-6, I-8, I-16, I-19, I-22˜I-24, and I-27˜I-36, which inhibited HIF-1α accumulation under hypoxia.
as §1

[5] = day 0, 20 mg/kg oral once a day
[6] = day 3, 20 mg/kg oral once a day
[7] = day 5, 20 mg/kg oral once a day
[8] = day 7, 20 mg/kg oral once a day
[9] = day 10, 20 mg/kg oral once a day
[10] = day 12, 20 mg/kg oral once a day
[11] = day 14, 20 mg/kg oral once a day
[12] = HCT-116, 72 h, day 3, 20 mg/kg oral once a day, read-out: TGI (tumor growth inhibition), tumor volume
[13] = HCT-116, 120 h, day 5, 20 mg/kg oral once a day, read-out: TGI (tumor growth inhibition), tumor volume
[14] = HCT-116, 168 h, day 7, 20 mg/kg oral once a day, read-out: TGI (tumor growth inhibition), tumor volume
[15] = HCT-116, 240 h, day 10, 20 mg/kg oral once a day, read-out: TGI (tumor growth inhibition), tumor volume
[16] = HCT-116, 288 h, day 12, 20 mg/kg oral once a day, read-out: TGI (tumor growth inhibition), tumor volume
[17] = HCT-116, 336 h, day 14, 20 mg/kg oral once a day, read-out: TGI (tumor growth inhibition), tumor volume
[18] = HCT-116, 336 h, day 14, 20 mg/kg oral once a day, read-out: TGI (tumor growth inhibition), tumor weight

T1 sequence (Q16665 whole entry): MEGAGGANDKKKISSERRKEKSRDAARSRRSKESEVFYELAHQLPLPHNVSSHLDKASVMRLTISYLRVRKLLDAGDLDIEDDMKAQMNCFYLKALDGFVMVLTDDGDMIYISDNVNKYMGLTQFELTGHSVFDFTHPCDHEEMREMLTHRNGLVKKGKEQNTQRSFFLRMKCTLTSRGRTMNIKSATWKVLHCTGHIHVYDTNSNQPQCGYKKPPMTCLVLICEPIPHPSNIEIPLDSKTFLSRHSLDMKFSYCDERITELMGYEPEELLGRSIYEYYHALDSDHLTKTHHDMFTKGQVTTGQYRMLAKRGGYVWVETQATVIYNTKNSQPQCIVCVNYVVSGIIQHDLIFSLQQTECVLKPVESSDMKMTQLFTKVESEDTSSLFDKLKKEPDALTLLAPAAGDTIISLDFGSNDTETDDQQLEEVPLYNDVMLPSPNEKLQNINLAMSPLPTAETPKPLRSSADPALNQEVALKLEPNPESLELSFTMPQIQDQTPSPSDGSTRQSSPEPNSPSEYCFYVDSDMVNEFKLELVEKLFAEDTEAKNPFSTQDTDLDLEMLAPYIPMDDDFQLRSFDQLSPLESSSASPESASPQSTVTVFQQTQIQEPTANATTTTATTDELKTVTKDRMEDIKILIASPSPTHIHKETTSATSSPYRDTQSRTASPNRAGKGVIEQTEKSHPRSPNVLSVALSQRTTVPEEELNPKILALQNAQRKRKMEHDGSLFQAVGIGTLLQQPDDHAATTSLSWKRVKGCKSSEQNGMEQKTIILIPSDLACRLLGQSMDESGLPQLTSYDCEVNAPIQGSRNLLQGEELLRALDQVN

For Cc1cc(C23CC4CC(CC(C4)C2)C3)ccc1OCC(=O)N1CCOCC1 [Compound I-6, 2-(4-(Adamantan-1-yl)-2-methylphenoxy)-1-morpholinoethanone], the GAPDH expression levels (GAPDH) was “did not affect GAPDH expression levels”, the inhibition at 10 µM [1] was 76 to 100% and the “formation of vessels (anti-angiogenic effect)” value (shortened to “formation of vessels”) [2] was “inhibited formation of vessels”. The Body weight change [3, 5] was 100.0 ± 0.0%, the Body weight change [3, 6] was 103.4 ± 0.6% and the Body weight change [3, 7] was 103.6 ± 2.6%. For the same compound, the Body weight change [3, 8] was 103.8 ± 3.3%, the Body weight change [3, 9] was 105.0 ± 3.1% and the Body weight change [3, 10] was 103.8 ± 2.9%. For the same compound, the Body weight change [3, 11] was 102.4 ± 3.0%, the inhibition in vivo at 20 mg/kg [4, 12] was 25% and the inhibition in vivo at 20 mg/kg [4, 13] was 24.1%. It also gave an inhibition in vivo at 20 mg/kg [4, 14] of 26.5%, an inhibition in vivo at 20 mg/kg [4, 15] of 28.4% and an inhibition in vivo at 20 mg/kg [4, 16] of 28.1%. It also gave an inhibition in vivo at 20 mg/kg [4, 17] of 28.4%, an inhibition in vivo at 20 mg/kg [4, 18] of 28.1% and a Tumor volume [4, 6] of 25.5 ± 7.5 mm^3. It also gave a Tumor volume [4, 7] of 70.1 ± 9.7 mm^3, a Tumor volume [4, 8] of 128.4 ± 14.0 mm^3 and a Tumor volume [4, 9] of 186.6 ± 15.2 mm^3. The Tumor volume [4, 10] was 322.5 ± 19.6 mm^3, the Tumor volume [4, 11] was 476.9 ± 28.1 mm^3 and the Tumor weight [4, 11] was 1703.3 ± 252.2 mg. For the same compound, the HIF-1α degradation (HIF-1α) was “promoted HIF-1α degradation”.
With C[N+]1(C)CCN(C(=O)CCCOc2ccc(C34CC5CC(CC(C5)C3)C4)cc2)CC1.[I-] [Compound I-22, 4-(4-(4-(Adamantan-1-yl)phenoxy)butanoyl)-1,1-dimethylpiperazin-1-ium iodide] the inhibition at 10 µM [1] was 51 to 75%, the “formation of vessels” value [2] was “inhibited formation of vessels” and the Body weight change [3, 5] was 100.0 ± 0.0%. The Body weight change [3, 6] was 104.1 ± 3.5%, the Body weight change [3, 7] was 104.1 ± 4.6% and the Body weight change [3, 8] was 104.1 ± 3.3%. It also gave a Body weight change [3, 9] of 105.6 ± 5.1%, a Body weight change [3, 10] of 103.8 ± 3.6% and a Body weight change [3, 11] of 102.7 ± 4.1%. For the same compound, the “inhibitory effects on tumor growth (TGI results)” value [4] was “significant inhibitory effects on tumor growth”, the inhibition in vivo at 20 mg/kg [4, 12] was 39.8% and the inhibition in vivo at 20 mg/kg [4, 13] was 40.8%. It also gave an inhibition in vivo at 20 mg/kg [4, 14] of 43.4%, an inhibition in vivo at 20 mg/kg [4, 15] of 45.1% and an inhibition in vivo at 20 mg/kg [4, 16] of 45.1%. It also gave an inhibition in vivo at 20 mg/kg [4, 17] of 47.8%, an inhibition in vivo at 20 mg/kg [4, 18] of 49.5% and a Tumor volume [4, 6] of 20.4 ± 1.1 mm^3. For the same compound, the Tumor volume [4, 7] was 54.7 ± 2.8 mm^3, the Tumor volume [4, 8] was 98.9 ± 4.8 mm^3 and the Tumor volume [4, 9] was 143.1 ± 6.2 mm^3. It also gave a Tumor volume [4, 10] of 246.4 ± 10.8 mm^3, a Tumor volume [4, 11] of 347.6 ± 11.8 mm^3 and a Tumor weight [4, 11] of 1197.3 ± 156.3 mg. The “inhibitory effects on HIF-1α accumulation” value (HIF-1α) was “significant inhibitory effects on HIF-1α accumulation”.
For CN1CCN(C(=O)COc2ccc(C34CC5CC(CC(C5)C3)C4)cc2)CC1 [Compound I-3, 2-(4-(Adamantan-1-yl)phenoxy)-1-(4-methylpiperazin-1-yl)ethanone], the GAPDH expression levels (GAPDH) was “did not affect GAPDH expression levels”, the inhibition at 10 µM [1] was 76 to 100% and the “formation of vessels” value [2] was “inhibited formation of vessels”. The Body weight change [3, 5] was 100.0 ± 0.0%, the Body weight change [3, 6] was 103.2 ± 2.8% and the Body weight change [3, 7] was 104.7 ± 3.0%. It also gave a Body weight change [3, 8] of 105.1 ± 2.8%, a Body weight change [3, 9] of 104.6 ± 2.7% and a Body weight change [3, 10] of 103.1 ± 2.7%. For the same compound, the Body weight change [3, 11] was 103.7 ± 4.0%, the “inhibitory effects on tumor growth (TGI results)” value [4] was “significant inhibitory effects on tumor growth” and the inhibition in vivo at 20 mg/kg [4, 12] was 33.2%. It also gave an inhibition in vivo at 20 mg/kg [4, 13] of 35%, an inhibition in vivo at 20 mg/kg [4, 14] of 36% and an inhibition in vivo at 20 mg/kg [4, 15] of 41.6%. It also gave an inhibition in vivo at 20 mg/kg [4, 16] of 44.1%, an inhibition in vivo at 20 mg/kg [4, 17] of 49.2% and an inhibition in vivo at 20 mg/kg [4, 18] of 51.5%. The Tumor volume [4, 6] was 31.6 ± 5.0 mm^3, the Tumor volume [4, 7] was 74.8 ± 11.7 mm^3 and the Tumor volume [4, 8] was 133.7 ± 14.8 mm^3. The Tumor volume [4, 9] was 237.0 ± 24.9 mm^3, the Tumor volume [4, 10] was 371.4 ± 36.2 mm^3 and the Tumor volume [4, 11] was 587.8 ± 48.4 mm^3. The Tumor weight [4, 11] was 2074.2 ± 373.8 mg, the HIF-1α degradation (HIF-1α) was “promoted HIF-1α degradation” and the “inhibitory effects on HIF-1α accumulation” value (HIF-1α) was “significant inhibitory effects on HIF-1α accumulation”.
